Data taken from PubChem BioAssay (NCI).
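Tested at 5 concentrations; 48 h exposure; 96-well plates; endpoints linearly interpolated, else capped at highest concentration. TGI is the concentration that stops growth completely.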

Experiments:
Experiment in all cases: NCI-60 cell line screen, 48 h
M14 melanoma = test system: M14 melanoma
LOX IMVI melanoma = test system: LOX IMVI melanoma
U251 CNS = test system: U251 CNS
BT-549 breast = test system: BT-549 breast
NCI-H522 lung = test system: NCI-H522 lung
SK-MEL-2 melanoma = test system: SK-MEL-2 melanoma
SN12C renal = test system: SN12C renal
SK-OV-3 ovarian = test system: SK-OV-3 ovarian
NCI/ADR-RES ovarian = test system: NCI/ADR-RES ovarian
HL-60(TB) leukemia = test system: HL-60(TB) leukemia

## COC1CCC(OC2CC(C3(C)CCC4(CC(O)C(C)C(C(C)/C=C(\C)C(=O)C(C)CC(C)C(=O)O)O4)O3)OC3(OC(C4OC(O)(CO)C(C)CC4C)CC3C)C2C)OC1C (stereo not drawn)
M14 melanoma
  TGI: 0.287 µM
LOX IMVI melanoma
  TGI: 0.941 µM
U251 CNS
  TGI: 0.817 µM
BT-549 breast
  TGI: 1.26 µM
NCI-H522 lung
  TGI: 0.26 µM
SK-MEL-2 melanoma
  TGI: 0.576 µM
SN12C renal
  TGI: 1.55 µM
SK-OV-3 ovarian
  TGI: 10.9 µM
NCI/ADR-RES ovarian
  TGI: 6.65 µM

## COc1cc(C2c3cc4c(cc3OC(N3CCOCC3)C2C)OCO4)cc(OC)c1O (stereo not drawn)
M14 melanoma
  TGI: > 100 µM
HL-60(TB) leukemia
  TGI: > 26 µM
LOX IMVI melanoma
  TGI: > 100 µM
U251 CNS
  TGI: > 53.6 µM
BT-549 breast
  TGI: 60.6 µM
NCI-H522 lung
  TGI: > 20.2 µM
SK-MEL-2 melanoma
  TGI: 46.3 µM
SN12C renal
  TGI: 54.3 µM
SK-OV-3 ovarian
  TGI: > 50.6 µM
NCI/ADR-RES ovarian
  TGI: 18.4 µM

## Cc1cc2ccccc2c[n+]1CC(=O)CC([O-])(C(F)(F)F)C(F)(F)F
M14 melanoma
  TGI: > 100 µM
HL-60(TB) leukemia
  TGI: > 100 µM
LOX IMVI melanoma
  TGI: > 100 µM
U251 CNS
  TGI: > 100 µM
NCI-H522 lung
  TGI: > 100 µM
SK-MEL-2 melanoma
  TGI: > 100 µM
SN12C renal
  TGI: > 100 µM
SK-OV-3 ovarian
  TGI: > 100 µM
NCI/ADR-RES ovarian
  TGI: > 100 µM

## CCOC(=O)/C=C(/C(=O)OCC)n1cc(C)c(=O)n(Cc2cnnn2CCCCOC(C)=O)c1=O
LOX IMVI melanoma
  TGI: 41 µM
U251 CNS
  TGI: > 100 µM
BT-549 breast
  TGI: 24.3 µM
NCI-H522 lung
  TGI: 14.2 µM
SK-MEL-2 melanoma
  TGI: > 100 µM
SN12C renal
  TGI: > 100 µM
SK-OV-3 ovarian
  TGI: > 100 µM
NCI/ADR-RES ovarian
  TGI: 69.3 µM

## CC(NCCS(=O)(=O)O)C(=O)O (stereo not drawn)
HL-60(TB) leukemia
  TGI: > 100 µM
LOX IMVI melanoma
  TGI: > 100 µM
U251 CNS
  TGI: > 100 µM
NCI-H522 lung
  TGI: > 100 µM
SK-MEL-2 melanoma
  TGI: > 100 µM
SN12C renal
  TGI: > 100 µM
SK-OV-3 ovarian
  TGI: > 100 µM
NCI/ADR-RES ovarian
  TGI: > 100 µM

## CC(C)n1c(=O)c2nn3c(=O)n(C(C)C)c(=O)c3nn2c1=O
M14 melanoma
  TGI: > 100 µM
HL-60(TB) leukemia
  TGI: > 100 µM
LOX IMVI melanoma
  TGI: > 100 µM
SK-MEL-2 melanoma
  TGI: > 100 µM
SN12C renal
  TGI: > 100 µM
SK-OV-3 ovarian
  TGI: > 100 µM
NCI/ADR-RES ovarian
  TGI: > 100 µM

## O=S1(=O)c2ccccc2N2CCCc3cc(Cl)cc1c32
M14 melanoma
  TGI: > 100 µM
HL-60(TB) leukemia
  TGI: > 100 µM
LOX IMVI melanoma
  TGI: > 100 µM
BT-549 breast
  TGI: > 100 µM
SK-MEL-2 melanoma
  TGI: > 100 µM
SN12C renal
  TGI: > 100 µM
SK-OV-3 ovarian
  TGI: > 100 µM
NCI/ADR-RES ovarian
  TGI: > 100 µM

## CO[P@]1(=O)O[C@@H](c2ccccc2)[C@H](O)[C@]1(O)c1ccccc1
M14 melanoma
  TGI: > 100 µM
HL-60(TB) leukemia
  TGI: > 100 µM
LOX IMVI melanoma
  TGI: > 100 µM
U251 CNS
  TGI: > 100 µM
BT-549 breast
  TGI: > 100 µM
NCI-H522 lung
  TGI: > 100 µM
SK-MEL-2 melanoma
  TGI: > 100 µM
SN12C renal
  TGI: > 100 µM
SK-OV-3 ovarian
  TGI: > 100 µM
NCI/ADR-RES ovarian
  TGI: > 100 µM

## O=C1CC(O)c2c(Cl)sc(Cl)c21 (stereo not drawn)
M14 melanoma
  TGI: 32.7 µM
LOX IMVI melanoma
  TGI: 5.24 µM
U251 CNS
  TGI: 20.2 µM
BT-549 breast
  TGI: 29.7 µM
SK-MEL-2 melanoma
  TGI: 31.2 µM
SN12C renal
  TGI: > 48.6 µM
SK-OV-3 ovarian
  TGI: > 100 µM
NCI/ADR-RES ovarian
  TGI: 59.2 µM

## C=C(Br)CN(C#N)CC(=C)Br
M14 melanoma
  TGI: > 100 µM
HL-60(TB) leukemia
  TGI: > 100 µM
LOX IMVI melanoma
  TGI: > 100 µM
U251 CNS
  TGI: > 100 µM
NCI-H522 lung
  TGI: > 100 µM
SK-MEL-2 melanoma
  TGI: > 100 µM
SN12C renal
  TGI: > 100 µM
SK-OV-3 ovarian
  TGI: > 100 µM
NCI/ADR-RES ovarian
  TGI: > 100 µM

## S=C1CC(c2ccc(Cl)cc2)Sc2ccccc2N1 (stereo not drawn)
M14 melanoma
  TGI: > 100 µM
HL-60(TB) leukemia
  TGI: > 100 µM
LOX IMVI melanoma
  TGI: > 100 µM
U251 CNS
  TGI: > 100 µM
BT-549 breast
  TGI: > 100 µM
NCI-H522 lung
  TGI: > 100 µM
SN12C renal
  TGI: > 100 µM
SK-OV-3 ovarian
  TGI: 56.9 µM
NCI/ADR-RES ovarian
  TGI: > 100 µM

## O=C1CC(c2cccc(Cl)c2)n2cccc21 (stereo not drawn)
M14 melanoma
  TGI: > 100 µM
HL-60(TB) leukemia
  TGI: 92.7 µM
LOX IMVI melanoma
  TGI: > 100 µM
U251 CNS
  TGI: > 100 µM
SK-MEL-2 melanoma
  TGI: > 100 µM
SN12C renal
  TGI: > 100 µM
SK-OV-3 ovarian
  TGI: > 100 µM
NCI/ADR-RES ovarian
  TGI: > 100 µM
